In ChEMBL document CHEMBL1201862, “PubChem BioAssay data set” (2004):
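Each compound was tested at five concentrations against cells in 96-well plates for 48 hours. The concentration for 50% growth inhibition is given as GI50.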 The source made the active and inactive calls. Cut-off read from the data, not from the text of the source: active = GI50 up to about 1.1 µM and inactive = higher.

Legend:
Assay in all cases: DTP human tumour cell line panel, 48 h
786-0 = system: 786-0
OVCAR-5 = system: OVCAR-5
SNB-19 = system: SNB-19
OVCAR-4 = system: OVCAR-4
Malme-3M = system: Malme-3M
SK-OV-3 = system: SK-OV-3
M19-MEL = system: M19-MEL
SK-MEL-2 = system: SK-MEL-2
DLD-1 = system: DLD-1
SF-268 = system: SF-268
COLO 205 = system: COLO 205
LOX IMVI = system: LOX IMVI
UACC-257 = system: UACC-257
HCT-15 = system: HCT-15
KM12 = system: KM12
A549 = system: A549
UACC-62 = system: UACC-62
CAKI-1 = system: CAKI-1
DMS-273 = system: DMS-273
EKVX = system: EKVX
TK-10 = system: TK-10
HOP-62 = system: HOP-62
IGROV-1 = system: IGROV-1
M14 = system: M14
OVCAR-8 = system: OVCAR-8
SNB-78 = system: SNB-78
HT-29 = system: HT-29
SNB-75 = system: SNB-75
SF-295 = system: SF-295
UO-31 = system: UO-31
RPMI-8226 = system: RPMI-8226
XF498 = system: XF498
HOP-18 = system: HOP-18
SF-539 = system: SF-539
NCI-H23 = system: NCI-H23
K562 = system: K562
HCC 2998 = system: HCC 2998
SK-MEL-28 = system: SK-MEL-28
SN12C = system: SN12C
RXF 393 = system: RXF 393
U-251 = system: U-251
KM-20L2 = system: KM-20L2

## CC[P+](C)(Cc1ccccc1)c1ccccc1.O=C(OC(C(=O)[O-])C(OC(=O)c1ccccc1)C(=O)O)c1ccccc1 (configuration not stated)
786-0
  GI50: > 100 µM (inactive)
OVCAR-5
  GI50: > 100 µM (inactive)
SNB-19
  GI50: > 100 µM (inactive)
OVCAR-4
  GI50: > 100 µM (inactive)
Malme-3M
  GI50: > 100 µM (inactive)
SK-OV-3
  GI50: > 100 µM (inactive)
M19-MEL
  GI50: > 100 µM (inactive)
SK-MEL-2
  GI50: > 100 µM (inactive)
DLD-1
  GI50: > 100 µM (inactive)
SF-268
  GI50: > 100 µM (inactive)
COLO 205
  GI50: > 100 µM (inactive)
LOX IMVI
  GI50: > 100 µM (inactive)
UACC-257
  GI50: > 100 µM (inactive)
HCT-15
  GI50: > 100 µM
KM12
  GI50: > 100 µM (inactive)
A549
  GI50: > 100 µM (inactive)
UACC-62
  GI50: > 100 µM (inactive)
CAKI-1
  GI50: > 100 µM (inactive)
DMS-273
  GI50: > 100 µM (inactive)
EKVX
  GI50: > 100 µM (inactive)
TK-10
  GI50: > 100 µM (inactive)
HOP-62
  GI50: > 100 µM (inactive)
IGROV-1
  GI50: > 100 µM (inactive)
M14
  GI50: > 100 µM (inactive)
OVCAR-8
  GI50: > 100 µM (inactive)
SNB-78
  GI50: > 100 µM (inactive)
HT-29
  GI50: > 100 µM (inactive)
SNB-75
  GI50: > 100 µM (inactive)
SF-295
  GI50: > 100 µM (inactive)
UO-31
  GI50: > 100 µM (inactive)
RPMI-8226
  GI50: > 100 µM (inactive)
XF498
  GI50: > 100 µM (inactive)
HOP-18
  GI50: 5.47 µM (inactive)
SF-539
  GI50: > 100 µM (inactive)
NCI-H23
  GI50: > 100 µM (inactive)
K562
  GI50: > 100 µM (inactive)
HCC 2998
  GI50: > 100 µM (inactive)
SK-MEL-28
  GI50: > 100 µM (inactive)
SN12C
  GI50: > 100 µM (inactive)
RXF 393
  GI50: > 100 µM (inactive)
U-251
  GI50: > 100 µM (inactive)
KM-20L2
  GI50: > 100 µM (inactive)
